The target of one assay is PLD2 (Homo sapiens, UniProt O14939). As to conditions: cellular assay, HEK293-gfpPLD2 cells.
Assay [1] addresses T1, PLD1 (Homo sapiens, UniProt Q13393).
T1 sequence (Q13393 1-1074): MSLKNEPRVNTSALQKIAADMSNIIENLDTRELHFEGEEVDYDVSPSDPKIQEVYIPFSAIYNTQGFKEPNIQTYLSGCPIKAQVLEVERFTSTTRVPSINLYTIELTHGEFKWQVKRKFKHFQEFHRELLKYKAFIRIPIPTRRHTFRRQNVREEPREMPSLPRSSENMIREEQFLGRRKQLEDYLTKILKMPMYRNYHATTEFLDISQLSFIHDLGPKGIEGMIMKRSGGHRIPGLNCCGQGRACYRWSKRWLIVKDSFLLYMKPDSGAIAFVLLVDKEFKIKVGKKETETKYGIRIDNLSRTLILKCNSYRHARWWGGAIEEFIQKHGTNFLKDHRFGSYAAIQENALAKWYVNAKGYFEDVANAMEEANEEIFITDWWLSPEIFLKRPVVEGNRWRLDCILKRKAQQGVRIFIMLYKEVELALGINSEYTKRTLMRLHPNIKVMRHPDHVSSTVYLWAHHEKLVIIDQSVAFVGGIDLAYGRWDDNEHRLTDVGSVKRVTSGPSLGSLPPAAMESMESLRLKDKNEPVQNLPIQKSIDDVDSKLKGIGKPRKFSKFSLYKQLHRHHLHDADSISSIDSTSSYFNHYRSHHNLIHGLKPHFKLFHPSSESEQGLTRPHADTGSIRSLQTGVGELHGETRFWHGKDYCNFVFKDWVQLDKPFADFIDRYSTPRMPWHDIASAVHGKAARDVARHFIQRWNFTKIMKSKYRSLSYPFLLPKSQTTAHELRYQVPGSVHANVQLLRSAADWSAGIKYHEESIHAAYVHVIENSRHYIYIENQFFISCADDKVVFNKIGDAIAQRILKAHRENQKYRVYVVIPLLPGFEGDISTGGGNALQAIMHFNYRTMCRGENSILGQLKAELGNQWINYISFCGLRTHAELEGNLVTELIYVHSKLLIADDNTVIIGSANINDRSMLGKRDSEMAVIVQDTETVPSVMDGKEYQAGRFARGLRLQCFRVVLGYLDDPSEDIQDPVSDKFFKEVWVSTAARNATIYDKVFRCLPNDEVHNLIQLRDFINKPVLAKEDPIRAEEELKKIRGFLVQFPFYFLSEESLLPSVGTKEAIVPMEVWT
As to conditions: cellular assay, Calu-1 cells.

The target of assay [2] is T1, PLD1. Put plainly: cell-based.

Entries after “also recorded” stand apart in the source; their conditions may differ.

PLD2, sequence (O14939 whole entry): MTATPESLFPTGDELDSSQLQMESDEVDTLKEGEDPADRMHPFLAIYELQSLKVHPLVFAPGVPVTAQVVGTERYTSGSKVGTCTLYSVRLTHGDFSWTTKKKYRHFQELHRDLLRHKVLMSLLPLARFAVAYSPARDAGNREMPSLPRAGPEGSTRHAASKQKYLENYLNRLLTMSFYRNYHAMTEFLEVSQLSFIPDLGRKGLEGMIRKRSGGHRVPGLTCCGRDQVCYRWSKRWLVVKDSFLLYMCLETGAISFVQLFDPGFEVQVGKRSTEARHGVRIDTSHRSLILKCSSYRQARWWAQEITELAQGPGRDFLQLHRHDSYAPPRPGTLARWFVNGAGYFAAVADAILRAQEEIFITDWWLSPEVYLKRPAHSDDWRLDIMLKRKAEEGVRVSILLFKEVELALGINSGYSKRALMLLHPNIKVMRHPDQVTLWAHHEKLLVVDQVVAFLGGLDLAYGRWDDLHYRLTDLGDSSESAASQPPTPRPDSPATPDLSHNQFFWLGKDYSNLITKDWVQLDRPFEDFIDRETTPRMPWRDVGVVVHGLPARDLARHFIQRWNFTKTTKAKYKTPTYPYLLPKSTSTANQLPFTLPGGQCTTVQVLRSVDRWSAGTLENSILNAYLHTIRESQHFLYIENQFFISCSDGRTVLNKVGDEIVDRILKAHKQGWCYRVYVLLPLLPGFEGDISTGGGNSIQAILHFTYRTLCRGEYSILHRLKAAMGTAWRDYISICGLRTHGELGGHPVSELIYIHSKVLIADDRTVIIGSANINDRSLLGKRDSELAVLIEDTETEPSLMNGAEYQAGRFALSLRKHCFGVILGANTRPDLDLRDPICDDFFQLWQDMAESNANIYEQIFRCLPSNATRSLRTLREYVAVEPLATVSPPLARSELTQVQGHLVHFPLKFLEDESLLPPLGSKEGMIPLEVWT

Regarding `O=C(NCCN1CCC2(CC1)C(=O)NCN2c1ccccc1)c1cnc2ccccc2n1` [Compound 9g], the “PLD2 inhibition (in words)” value on PLD2 is recorded as “complete loss of PLD inhibitory activity”. At PLD1 [1], the “PLD1 inhibition (in words)” value is reported as “complete loss of PLD inhibitory activity”.
Regarding `c1cc(N2CCNCC2)ccn1` [Compound 15], the IC50 against PLD1 [2] lay within 3.6 to 18 µM.
Take `C[C@@H](CN1CCC2(CC1)C(=O)NCN2c1ccccc1)NC(=O)[C@H]1C[C@@H]1c1ccccc1` [Compound 10b]: the “PLD2 inhibition (in words)” value at PLD2 is “no effect, relative to 9a, on PLD2 inhibition”.
Take `c1ccc(N2CCNCC2)nc1` [Compound 16]: the IC50 against PLD1 [2] lay within 3.6 to 18 µM.
On to `O=C(NCCN1CCC2(CC1)C(=O)NCN2c1ccccc1)[C@H]1C[C@@H]1c1ccccc1` [Compound 9a], for which the “PLD2 inhibition (in words)” value on PLD2 is “inactive on both PLD isoforms; also recorded: complete loss of PLD inhibition”. At PLD1 [1], the “PLD1 inhibition (in words)” value is “inactive on both PLD isoforms; also recorded: complete loss of PLD inhibition”.

The values above are taken from paper PMC3800051 (Bioorganic & medicinal chemistry letters, 2009).
